Consider one molecule from patent US10052304B2, “Compositions and methods for cancer therapy” (UNIVERSITY OF IOWA RESEARCH FOUNDATION, priority 2015, dated 2018).

One series deals with ETC complex IV. The series can be described thus: ETC complex IV activity after ascorbate exposure. Particulars: NSCLC cell lysates. It counts as cell-based, human. The protocol:
Exponentially growing cells were scraped and frozen as dry pellets until assayed for total activity. Aconitase activity was measured as the rate of appearance of NADPH (at 340 nm; Beckman DU 800 spectrophotometer, Brea, Calif.) for 45 min during the reaction of 200 μg total sample protein with 200 μM NADP^+ and 10 U isocitrate dehydrogenase as previously described (Case et al., 2011). Maximal ETC complex activity was measured as previously described (Birch-Machin et al., 1994). Complex I activity was quantified as the rate of rotenone-inhibitable NADH oxidation (320 nm; c=6.22 mM^−1 cm^−1). Complex II activity as the difference in the rate of DCIP reduction in the presence and absence of succinate (at 600 nm; ε=19.1 mM^−1 cm^−1). Complex IV activity was assayed as the rate of oxidation of cytochrome c ([…]; ε=19.6 mM^−1 cm^−1). Rates of activities were normalized to total protein by Lowry.
Exponentially growing cells were scraped and frozen as dry pellets until assayed for protein content (Lowry) and maximal ETC complex activity as previously described (Birch-Machin et al., 1994). Briefly, dry cell pellets were resuspended in 20 mM potassium phosphate buffer and sonicated 3×10 s each. Rates of activities were normalized to total protein. Complex I activity was quantified as the rate of rotenone-inhibitable NADH oxidation (320 nm; ε=6.22 mM-1 cm-1). […]

The next series concerns ferritin. Particulars: read-out: Km of ascorbate-mediated Fe^+2 release from ferritin; cited from earlier work.
Series [1] can be described thus: Ascorbate quantification in mouse plasma, tumor and CSF after IP ascorbate. The format is in vivo, mice.
Method: Tumor xenografts were excised and flash frozen in liquid nitrogen until analysis. Mouse whole blood was collected by cardiac puncture, and plasma was collected after the sample was centrifuged at 500 g for 10 min and frozen until analysis. For patient samples, whole blood was collected from clinical trial patients (NaHeparin 75 USP units, BD Vacutainer® green top blood collection tube, 4 mL), and plasma was collected after centrifugation at 500 g for 10 min and aliquoted and stored at −80° C. until analysis.
Tumor xenografts were excised and flash frozen in liquid nitrogen until analysis. Mouse whole blood was collected by cardiac puncture, and plasma was collected after the sample was centrifuged at 500 g for 10 min and frozen until analysis. For patient samples, whole blood was collected from clinical trial patients (NaHeparin 75 USP units, BD Vacutainer® green top blood collection tube, 4 mL), and plasma was collected after centrifugation at 500 g for 10 min and aliquoted and stored at −80° C. until analysis. […] Briefly, samples were extracted in a buffer containing 90% methanol and 10% water with 250 μM DETAPAC (90:10, v/v), mixed, and incubated on ice for 10 min to precipitate protein. The samples were clarified by centrifugation (16 g, 10 min) with an Eppendorf model 5415D Microfuge. Specifically, samples were diluted at a ratio of 50 μL of plasma to 450 μL extraction buffer. These samples were then further diluted another 77.5 to 105-fold (therefore, 775-1,050 fold overall) in a buffer containing 72% methanol and 28% water with 250 μM DETAPAC (72:28, v/v). […] This protocol ensured that all samples had identical methanol content which is critical for accurate quantification (Vislisel et al., 2007). 100 μL aliquots of the samples or standards were placed in 96-well optical bottom black plates (Thermo Fisher Scientific, Rochester, N.Y., USA). The assay was initiated at room temperature by adding 100 μL of 2.3 mM 4-hydroxy-2,2,6,6-tetramethylpiperidinyloxyl (Tempol) in 2 M sodium acetate trihydrate buffer previously adjusted to pH 5.5 with acetic acid. […] Subsequently, 42 μL of 5.5 mM ortho-phenylenediamine (oPDA) in 2 M sodium acetate buffer (pH 5.5) was added to the samples. Kinetic measurements were immediately initiated and collected every 22 s using a TECAN SpectraFluor Plus plate reader (Tecan, Research Triangle Park, N.C., USA) for the fluorescent condensation product of the reaction of oPDA with DHA (3-dihydroxyethyl)furo[3,4-b]quinoxaline-1-one; λex=345 nm, λem=425 nm). […] Briefly, plasma samples were measured spectrophotometrically (265 nm; ε=13,000 M-1 cm-1) using an Implen Nanophotometer P-330 with a 250× dilution lid, path length=4.00×10-3 cm. The blank for each sample was a pair-‘pre-infusion’ plasma sample, which allowed removal of the background absorbance of plasma proteins and other constituents.
Briefly, mice were anesthetized (17.5 mg ml^−1 ketamine/2.5 mg ml^−1 xylazine mixture), restrained in a stereotaxic frame with an acute head angle, and the dura mater covering the foramen magnum was surgically exposed. CSF was collected by capillary action following minimal puncture of the dura mater and frozen until EPR analysis. Ascorbyl radical EPR spectra were obtained by placing the capillary tube into the bottom of a 250 mm×3 mm (ID) thin walled quartz EPR tube (707-SQ-250M Wilmad-Lab Glass, Vineland, N.J.) centered in a Bruker HS EPR cavity (Bruker, Billerica, Mass.). […]
Series [2] concerns stage IV pancreas cancer patients. Particulars: cited from earlier work.
The subject of series [3] is advanced stage NSCLC patients. The experiment in a line: Phase II clinical trial of pharmacological ascorbate with carboplatin and paclitaxel in advanced stage NSCLC. The format is in vivo, human. On the procedure: This phase II clinical trial was registered with clinicaltrials.gov (NCT 02420314) prior to enrollment of the first subject. Newly diagnosed advanced stage NSCLC patients were invited to participate.
Whole blood was collected from patients around infusions.
(§1) We have not seen any unexpected or unusual increase in Grade 3/4 toxicities as compared to previously published literature, although it remains too early for a direct comparison. Responses to therapy were determined per RECIST 1.1 criteria (Eisenhauer et al., 2009). Currently, four of six patients have completed the trial with imaging-confirmed partial responses to therapy. […] Finally, one patient progressed with a new spinal lesion, although the target lesions are stable; this patient has been transitioned off of the trial.
as §1, with “This phase II clinical trial was registered with clinicaltrials.gov (NCT 02420314) prior to enrollment of the first subject. Newly diagnosed advanced stage NSCLC patients were invited to participate. […] We” for “We”, “a total” for “four”, “eleven subjects have been recruited to the trial, seven of which are currently evaluable for response. Five of seven” for “six”

The subject of another series is HBEpCs. The series can be described thus: Intracellular H2O2 with PeroxyOrange-1, HBEpCs. It counts as cell-based, human. Particulars: ascorbate 15 pmol cell^−1. On the procedure:
To visualize intracellular H2O2 levels, the selectively sensitive fluorescent probe PeroxyOrange-1 was utilized as previously described with modifications (Dickinson et al., 2010). 1×10^5 cells were plated and grown in their respective media for 48 h. The complete protocol was conducted in the dark with minimal ambient lighting. Cells were washed with PBS and incubated with 10 uM PO-1 in phenol red free RPMI supplemented with HBE growth supplements for 1 h at 37° C. Cells were then washed in PBS and placed back in phenol red free RPMI supplemented with HBE growth supplements. […] At times indicated, cells were placed on ice for the remainder of the protocol, washed, and trypsinized with phenol red free 0.5% trypsin. After 15 min, cells still attached were scraped and all cells were collected in 15 mL conical vials containing PBS+10% FBS to neutralize the trypsin reaction. Cells were spun at 1200 rpm for 5 min at 4° C., resuspended in 300-500 uL PBS and were run on a LSR II Flow Cytometer (BD Biosciences) with λex=561 nm, λem=585/20 nm. The mean fluorescence intensity (MFI) was analyzed (FlowJo™) and corrected for autoflourescence against unlabeled cells. Normalized MFI was calculated by comparing MFI for a given treatment group against control.

Setting [4] is: Example 1: two hours after last radiation treatment, 4 g/kg IP.
Setting [5] is: Example 4: 1 h after IP ascorbate 4 g kg^−1, H292 xenograft mice.
Where [6] appears, read: first six patients, ascorbate 75 g twice weekly + carboplatin/paclitaxel.

Entries after “also recorded” stand apart in the source; their conditions may differ.

`O=C1O[C@H]([C@@H](O)CO)C(O)=C1O` [ascorbate, L-ascorbic acid]: in the series on ETC complex IV, the “ETC complex IV activity” value is “no inhibition of activity”. The Km in the series on ferritin is 1300 µM. In series [1] (setting [4]), the “plasma ascorbate concentration vs non-ascorbate treated mice” value was “significantly higher” and the “tumor ascorbate concentration vs non-ascorbate treated mice” value was “significantly higher”. In addition, in series [1] (setting [5]), the “ascorbate level in plasma” value is given as “significantly increased ascorbate levels” and the “ascorbate level in tumor” value is reported as “significantly increased ascorbate levels”. For the same molecule, in series [1] (Example 4: 1 h after IP ascorbate 4 g kg^−1, healthy nude mice), the “ascorbate level in cerebrospinal fluid (ascorbyl radical EPR)” value was “significantly increased ascorbate levels”. Besides, the “side effects attributed to the combination” value in series [2] (ascorbate + gemcitabine) is “rare and included diarrhea and dry mouth”. Further, the average survival in series [2] (pharmacological ascorbate + gemcitabine, stage IV pancreas cancer) is 14 months. In addition, the “patient plasma ascorbate level” value in series [3] (after 75 g IV infusions) was 16.4 ± 0.5 mM. For the same molecule, the “patients with imaging-confirmed partial responses (RECIST 1.1)” value in series [3] (ascorbate + carboplatin/paclitaxel, evaluable patients to date) was “four of six; also recorded: Five of seven”. Also, in series [3] (setting [6]), the disease control rate is given as 83% and the objective response rate turned out to be 67%. For the same molecule, the “grade 3/4 toxicities attributed to ascorbate” value in series [3] (through 134 total infusions) is “no grade 3/4 toxicities attributed to ascorbate”. The “steady-state levels of H2O2 (PeroxyOrange-1)” value in the series on HBEpCs is listed as “unchanged”.

One may read the Km as the concentration of substrate that gives half-maximal velocity.
